The values below come from patent US20200404909A1, “Fatty acid derivatives for use as herbicides” (Clariant International Ltd., priority 2018, published 2020).

Data set [1] in a line: Spray liquids in water: appearance and stability after 24 h. Conditions: spray liquid in water, amount 5.0 % by wt., after 24 h. It is filed as physicochemical. As for the experimental part: The inventive compounds were used to make spray liquids at relevant use concentration. These spray liquids are produced by mixing the various test substances in water, and the appearance and stability of the spray liquid were assessed after 24 h.
The inventive compounds can be used as 100% substances without need for additional additives or formulation aids to obtain stable spray liquids. They are either water soluble and form clear homogeneous spray liquid or self-emulsifying in the spray liquid and form cloudy homogeneous emulsions that are stable over 24 h. […] Stable spray liquids can only be achieved with pelargonic acid when they are formulated with appropriate emulsifiers and other formulation aids like in the commercial benchmark Vorox.

The test system of data set [2] is Fruit trees (apple trees). In words: Plant growth regulator activity: blossom thinning in orchards (greenhouse and field trial). The settings on record: A1 diluted in water 1-10%, about 2 to about 15 liters per apple tree. It is filed as in vivo. The text has this:
Fruit trees were sprayed with substance A1 (Pelargonic acid 6 EO ester methyl ether), several days before the expected full blossoming in the greenhouse, and also in a field trial to test the blossom thinning, which is used to increase the fruit production.
Plots (3 trees per plot in field trials; 1 tree per plot in greenhouse) were assigned to different treatments in a randomized experimental design. One plot was left untreated as a reference against which effects of the treatments could later be evaluated.
The test substance A1 was diluted in water in a range of 1-10% and the spray solution was sprayed in an amount of about 2 to about 15 liters per apple tree (height: about 2-2.5 m, width: about 1-1.5 m). The Application was made with a high-pressure power backpack sprayer manufactured by SOLO® Kleinmotoren GmbH.
The treated trees were evaluated regarding flower thinning effect, but also regarding undesired effects by chemical injury such as leaf browning, leaf malformation, etc.

Data set [3] can be described thus: Volatility from spray deposit on inert wettable synthetic substrates. It is filed as physicochemical. Conditions: test substances 50 g/L, pelargonic acid 30 g/L, Vorox 130 g/L. As to the method:
(§1) The volatility of the test substances from the spray deposit was measured time dependent. All measurements have been carried out using a concentration of 50 g/L of the test substances in the application solution. The reference pelargonic acid was used at a concentration of 30 g/L and the commercial benchmark Vorox was applied at a concentration of 130 g/L. The […] drop volumes of 10 μl of the spray liquids which amounts to 500 μg of test substance were then applied on two different substrates. An inert wettable synthetic substrates and non-permeable leaf cuticles were used as substrates. […] After evaporation of drop water, the substrates were weighed to obtain the initial weight and placed under a sealed box with defined air suction output volume of 30 m^3/h. The volatility has been determined after the desired measurement time of 4 h, 24 h and 48 h by weighing of the substrates to obtain the remaining weight of the test substances. The fraction of remaining test substance in % is obtained by the ratio of remaining test substance compared to the initial weight of test substance. The volatilized amount was calculated by subtraction of the remaining test substance of the initial applied amount. The volatilized fraction of test substance in % is obtained by the ratio of volatilized test substance compared to the initial weight of test substance. A substrate without test substance is used as reference to account for changes in environmental conditions such as humidity. Concentrations used are based on ca. 3% pelargonic acid equivalent

Data set [4] relates to monocotyledonous and dicotyledonous harmful plants (ABUTH, ALOMY, AMARE, DIGSA, ERICA, LOLPE, SOLNI, VIOAR). The experiment in a line: Greenhouse trials, post emergence herbicidal activity (percent control). It is filed as in vivo. The settings on record: 5-20% w/v of applied substances, spray volume 500-1000 liters per hectare, broadcast foliar method. From the text: Standard post emergence herbicide application procedures were used, as described below, to apply inventive compounds and formulations listed in the tables 1 and 2, as well as the reference materials.
Seed of monocotyledonous and dicotyledonous harmful plants such as Abutilon theophrasti (ABUTH), Alopecurus myosuroides (ALOMY), Amaranthus retroflexus (AMARE), Digitaria Sanguinalis (DIGSA), Erigeron canadensis (ERICA), Lolium perenne (LOLPE), Solanun nigrum (SOLNI), Viola arvensis (VIOAR) were sowed in 18 cm^2 pots. The plants were placed in a greenhouse under controlled environmental conditions, and sub-irrigation. About one week after emergence, seedlings were thinned as needed, including removal of any unhealthy or abnormal plants, to create a uniform series of test pots.
The plants were maintained for the duration of the test in the greenhouse, where they received a mean of 70 μmol m^−2 s^−1 of light per day/night. Temperatures averages about 24° C. during the day and about 20° C. during the night. Plants were sub-irrigated throughout the test to ensure adequate soil moisture levels.
Pots were assigned to different treatment in a randomized experimental design. A set of pots was left untreated as a reference against which effects of the treatments could later be evaluated. Applications of tested formulations were made in a spray cabin model SPK B CT02 designed by CheckTec using the following parameters: • nozzle Lechler LU-120-08, 1000 L/ha, 3 bars, 0.56 m/s • nozzle Lechler LU-120-06, 500 L/ha, 3 bars, 0.7 m/s.
The distance of the nozzle from the plants was between 50 to 53 cms.
After treatment, pots were returned to the greenhouse until ready for evaluation (6 hours after treatment (6HAT), 1 day after treatment (1DAT), and 2 days after treatment (2DAT).
For evaluation of herbicidal effectiveness, all plants in the test were examined by a single technician, who recorded percent control, a visual measurement of the effectiveness of each treatment by comparison with untreated plants. […] The reported % control values represent the average for all replicates of each treatment.

Data set [5] in a line: Volatility from spray deposit on non-permeable leaf cuticles. It is filed as physicochemical. The settings on record: test substances 50 g/L, pelargonic acid 30 g/L, Vorox 130 g/L. As to the method: as §1

Turning to `CCCCCCCCC(=O)OCCOCCOCCOCCOCCOCCOC` [A1, Pelargonic acid 6 EO ester methyl ether], the Appearance result in data set [1] was “Clear solution”. Moreover, the “undesired effects by chemical injury (leaves, branches, tree)” value in data set [2] (evaluated after treatment) is recorded as “without significantly harming the tree”. Also, the flower thinning effect result in data set [2] (sprayed several days before full blossoming) was “excellent results as flower thinning agent”. Moreover, the “Volatilized fraction 4 h” value is recorded as −0.2% in data set [3] (pH 4, 4 h) and 1.5% in data set [5] (pH 4, 4 h). In addition, the “Volatilized fraction 24 h” value in data set [3] (pH 4, 24 h) is given as 0.6%; in data set [5] (pH 4, 24 h), 4.8%. Besides, the “Volatilized fraction 48 h” value worked out at 1.2% in data set [3] (pH 4, 48 h) and 5.2% in data set [5] (pH 4, 48 h). Further, the “herbicidal activity against a plurality of the harmful plants” value in data set [4] is “moderately effective to highly effective”. Moreover, the “herbicidal activity against several, in particular three or more, of the mentioned harmful plants” value in data set [4] is given as “highly effective”.
